Measurements from PubChem BioAssay (NCI).
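How tested: cells in 96-well plates exposed to compound for 48 hours at five concentrations. At the GI50, growth is halved. TGI marks complete inhibition of growth.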

system: SK-OV-3 ovarian; test: DTP human tumour cell line panel, 48 h

Which TGI does the source give for O=C(C[n+]1ccc2ccccc2c1)c1ccc2ccc3ccccc3c2c1 here?
Its TGI is 21 µM.

For NCCCCc1cc(O)c2c(c1O)C(=O)c1ccccc1C2=O, which TGI is on record?
The TGI was 29.1 µM.

Cc1ccccc1C(=O)N/N=C/c1ccc(Sc2nccn2C)c([N+](=O)[O-])c1 was tested. Which TGI did it give?
Its TGI is > 100 µM.

With CCn1c(-c2ccc(N=NNc3ccc(-c4n[nH]c(=S)n4CC)cc3)cc2)n[nH]c1=S as the compound, how does the TGI read?
Its TGI is 19.5 µM.

Which TGI does the source give for COc1ccc2c(c1)[nH]c1c(/C=C/c3ccccc3)nccc12 here?
Its TGI is 34.9 µM.

Clc1cc2c(cc1Cl)CC(NCCN1CCCC1)CC2 (stereo not drawn) was tested. Which TGI did it give?
The TGI was 34.9 µM.

For [N-]=[N+]=CC(=O)c1ccccc1C#CCCc1ccccc1, which TGI is on record?
The TGI was 66.7 µM.

NCCSC(c1ccccc1)c1ccccc1 was tested. Which TGI did it give?
Its TGI is 70.8 µM.

With CCCCCCCCC/C=C/C=C/C(=O)NCC(=O)NC1C(O)C(O)C(Nc2ncnc3nc[nH]c23)OC1C(O)CO (stereo not drawn) as the compound, how does the TGI read?
The TGI was 0.00892 µM.

Which TGI does the source give for COc1nc(C#CC2(O)CCCCC2)nc(OC)n1 here?
The TGI was > 100 µM.

How did the TGI turn out when C[C@H](CCC(=O)O)[C@H]1CC[C@@]2(C)[C@@H]3C(=O)C[C@H]4C(C)(C)[C@@H](O)CC[C@]4(C)[C@H]3C(=O)C[C@]12C was run?
Its TGI is > 100 µM.

system: SNB-19 CNS; test: DTP human tumour cell line panel, 48 h

With CCOC(=O)C1=NN(c2ccc(C)cc2)C2=CC(C)=NN(C)C(=S)N21 as the compound, how does the TGI read?
The TGI was > 100 µM.

O=C(c1cccs1)N(C(=S)OC12CC3CC(CC(C3)C1)C2)c1ccccc1 was tested. Which TGI did it give?
The TGI was > 100 µM.

For C(=N\NC1=NCCN1)/c1ccc(-c2cn3cc(/C=N/NC4=NCCN4)ccc3n2)cc1, which TGI is on record?
Its TGI is > 61.8 µM.

For CC1CC[C@@]2(OC1)OC1C[C@H]3[C@@H]4CC=C5CC(OC6OC(CO)C(OC7OC(CO)C(O)C(OC8OCC(O)C(O)C8O)C7OC7OC(CO)C(O)C(O)C7O)C(O)C6O)CCC5(C)[C@H]4CCC3(C)C1[C@@H]2C (stereo partly drawn), which TGI is on record?
The TGI was > 25 µM.

For Nc1ccccc1S(=O)(=O)c1ccccc1, which TGI is on record?
The TGI was > 100 µM.

Which TGI does the source give for Cc1c(N2C(=O)CS(=O)(=O)C2c2cccc(Oc3ccccc3)c2)c(=O)n(-c2ccccc2)n1C (stereo not drawn) here?
The TGI was > 100 µM.

Which TGI does the source give for COc1cc2c(ccc3c4cc(OC)c(OC)cc4c[n+](C)c23)cc1O here?
Its TGI is 32.4 µM.

For CNC(=O)OCc1c(CO)nc(SC)n1C, which TGI is on record?
Its TGI is > 100 µM.

For CN(C)CC(CC1=C(CC(CN(C)C)N(C)C)CCC1)N(C)C (stereo not drawn), which TGI is on record?
The TGI was > 100 µM.

Which TGI does the source give for CC12CC3OC(=O)C1COC14OC5(C2C1=O)C(O)(CCC1C4CC(O)C2(O)CC=CC(=O)C12C)C(=O)OC35C (stereo not drawn) here?
Its TGI is > 100 µM.

Which results are given for NC(=O)c1c(NC(=O)c2ccccn2)sc2c1CCC(=O)C2?
GI50: 3.45 µM; TGI: > 100 µM

With O=c1cccccc1[O-].O=c1cccccc1[O-].[O]=[U+2]=[O] as the compound, how does the TGI read?
Its TGI is 82.2 µM.

With COc1ccc(C(=O)/C=C/c2cccc([N+](=O)[O-])c2)c(OC)c1 as the compound, how does the GI50 read?
Its GI50 is 1.46 µM.

What about the TGI of the same compound?
Its TGI is 4.37 µM.

Which TGI does the source give for CCOC(=O)C(NC(=O)c1ccco1)(Nc1nc2ccc(OCC)cc2s1)C(F)(F)F (stereo not drawn) here?
Its TGI is > 100 µM.

For CCC(C)C1=C(OC(C)=O)[N+]2([O-])Oc3ccc(-c4c(OC(C)=O)c(OC(C)=O)c(-c5ccc(OC(C)=O)cc5)c(OC(C)=O)c4OC(C)=O)cc3OC2(C(C)CC)C(=O)N1OC(C)=O (stereo not drawn), which TGI is on record?
The TGI was > 50 µM.

O=C(O)C1C2CCC(O2)C1C(=O)Nc1cccc2cccnc12 (stereo not drawn) was tested. Which TGI did it give?
The TGI was > 100 µM.

COc1cccc2c1Cc1cc(-c3ccccc3)[n+](C)n1-2 was tested. Which TGI did it give?
The TGI was > 100 µM.

With O=C(OCN1C(=O)C2C3C=CC(C2C1=O)C1C2C(=O)N(COC(=O)C4CCCN4)C(=O)C2C31)C1CCCN1 (stereo not drawn) as the compound, how does the TGI read?
Its TGI is > 100 µM.

How did the TGI turn out when O=C(C[n+]1ccc2ccccc2c1)c1ccc2ccc3ccccc3c2c1 was run?
Its TGI is 18.7 µM.

With NCCCCc1cc(O)c2c(c1O)C(=O)c1ccccc1C2=O as the compound, how does the TGI read?
Its TGI is 29.2 µM.

Cc1ccccc1C(=O)N/N=C/c1ccc(Sc2nccn2C)c([N+](=O)[O-])c1 was tested. Which TGI did it give?
Its TGI is > 100 µM.

CCn1c(-c2ccc(N=NNc3ccc(-c4n[nH]c(=S)n4CC)cc3)cc2)n[nH]c1=S was tested. Which TGI did it give?
The TGI was 9.53 µM.

Which TGI does the source give for CC(=O)C1=C(C)N(c2ccc(C)cc2)C2(O)C=CC(=O)C3C(=O)N(c4ccccc4)C(=O)C132 (stereo not drawn) here?
The TGI was 65.6 µM.

How did the TGI turn out when COc1ccc2c(c1)[nH]c1c(/C=C/c3ccccc3)nccc12 was run?
The TGI was 38.5 µM.

With Clc1cc2c(cc1Cl)CC(NCCN1CCCC1)CC2 (stereo not drawn) as the compound, how does the TGI read?
The TGI was 46.3 µM.

[N-]=[N+]=CC(=O)c1ccccc1C#CCCc1ccccc1 was tested. Which TGI did it give?
Its TGI is > 100 µM.

For CCN(CC(=O)O)C(=O)c1cccnc1, which TGI is on record?
The TGI was > 100 µM.

For NCCSC(c1ccccc1)c1ccccc1, which TGI is on record?
The TGI was > 100 µM.

With COc1nc(C#CC2(O)CCCCC2)nc(OC)n1 as the compound, how does the TGI read?
The TGI was > 100 µM.

For C[C@H](CCC(=O)O)[C@H]1CC[C@@]2(C)[C@@H]3C(=O)C[C@H]4C(C)(C)[C@@H](O)CC[C@]4(C)[C@H]3C(=O)C[C@]12C, which TGI is on record?
Its TGI is > 100 µM.

system: SW-620 colon; test: DTP human tumour cell line panel, 48 h

With CCOC(=O)C1=NN(c2ccc(C)cc2)C2=CC(C)=NN(C)C(=S)N21 as the compound, how does the TGI read?
The TGI was > 100 µM.

For O=C(c1cccs1)N(C(=S)OC12CC3CC(CC(C3)C1)C2)c1ccccc1, which TGI is on record?
Its TGI is > 100 µM.

How did the TGI turn out when C(=N\NC1=NCCN1)/c1ccc(-c2cn3cc(/C=N/NC4=NCCN4)ccc3n2)cc1 was run?
Its TGI is > 100 µM.

How did the TGI turn out when CC1CC[C@@]2(OC1)OC1C[C@H]3[C@@H]4CC=C5CC(OC6OC(CO)C(OC7OC(CO)C(O)C(OC8OCC(O)C(O)C8O)C7OC7OC(CO)C(O)C(O)C7O)C(O)C6O)CCC5(C)[C@H]4CCC3(C)C1[C@@H]2C (stereo partly drawn) was run?
Its TGI is 8.3 µM.

For Nc1ccccc1S(=O)(=O)c1ccccc1, which TGI is on record?
Its TGI is > 100 µM.

For Cc1c(N2C(=O)CS(=O)(=O)C2c2cccc(Oc3ccccc3)c2)c(=O)n(-c2ccccc2)n1C (stereo not drawn), which TGI is on record?
The TGI was > 100 µM.

For COc1cc2c(ccc3c4cc(OC)c(OC)cc4c[n+](C)c23)cc1O, which TGI is on record?
Its TGI is > 47.3 µM.

Which TGI does the source give for CNC(=O)OCc1c(CO)nc(SC)n1C here?
The TGI was > 100 µM.

Which TGI does the source give for CN(C)CC(CC1=C(CC(CN(C)C)N(C)C)CCC1)N(C)C (stereo not drawn) here?
The TGI was > 100 µM.

Which TGI does the source give for CCC1CN(C(=O)c2ccccc2)C(Cc2c[nH]c3ccccc23)C(=O)C1CC(=O)OC (stereo not drawn) here?
The TGI was > 100 µM.

How did the TGI turn out when CC12CC3OC(=O)C1COC14OC5(C2C1=O)C(O)(CCC1C4CC(O)C2(O)CC=CC(=O)C12C)C(=O)OC35C (stereo not drawn) was run?
Its TGI is > 100 µM.

How did the GI50 turn out when NC(=O)c1c(NC(=O)c2ccccn2)sc2c1CCC(=O)C2 was run?
The GI50 was 0.882 µM.

And the TGI?
The TGI was > 100 µM.

With O=c1cccccc1[O-].O=c1cccccc1[O-].[O]=[U+2]=[O] as the compound, how does the TGI read?
Its TGI is > 100 µM.

Which results are given for COc1ccc(C(=O)/C=C/c2cccc([N+](=O)[O-])c2)c(OC)c1?
GI50: 1.2 µM; TGI: 2.54 µM

Which TGI does the source give for CCOC(=O)C(NC(=O)c1ccco1)(Nc1nc2ccc(OCC)cc2s1)C(F)(F)F (stereo not drawn) here?
The TGI was > 100 µM.

CCC(C)C1=C(OC(C)=O)[N+]2([O-])Oc3ccc(-c4c(OC(C)=O)c(OC(C)=O)c(-c5ccc(OC(C)=O)cc5)c(OC(C)=O)c4OC(C)=O)cc3OC2(C(C)CC)C(=O)N1OC(C)=O (stereo not drawn) was tested. Which TGI did it give?
The TGI was > 50 µM.

How did the TGI turn out when O=C(O)C1C2CCC(O2)C1C(=O)Nc1cccc2cccnc12 (stereo not drawn) was run?
The TGI was > 100 µM.

COc1cccc2c1Cc1cc(-c3ccccc3)[n+](C)n1-2 was tested. Which TGI did it give?
Its TGI is > 100 µM.

How did the TGI turn out when O=C(OCN1C(=O)C2C3C=CC(C2C1=O)C1C2C(=O)N(COC(=O)C4CCCN4)C(=O)C2C31)C1CCCN1 (stereo not drawn) was run?
Its TGI is > 72.2 µM.

With O=C(C[n+]1ccc2ccccc2c1)c1ccc2ccc3ccccc3c2c1 as the compound, how does the TGI read?
The TGI was 13.1 µM.

Which TGI does the source give for NCCCCc1cc(O)c2c(c1O)C(=O)c1ccccc1C2=O here?
Its TGI is > 44.2 µM.

For Cc1ccccc1C(=O)N/N=C/c1ccc(Sc2nccn2C)c([N+](=O)[O-])c1, which TGI is on record?
Its TGI is > 100 µM.

For CCn1c(-c2ccc(N=NNc3ccc(-c4n[nH]c(=S)n4CC)cc3)cc2)n[nH]c1=S, which TGI is on record?
Its TGI is > 100 µM.

How did the TGI turn out when CC(=O)C1=C(C)N(c2ccc(C)cc2)C2(O)C=CC(=O)C3C(=O)N(c4ccccc4)C(=O)C132 (stereo not drawn) was run?
Its TGI is 22.7 µM.

For COc1ccc2c(c1)[nH]c1c(/C=C/c3ccccc3)nccc12, which TGI is on record?
Its TGI is 91.9 µM.

With Clc1cc2c(cc1Cl)CC(NCCN1CCCC1)CC2 (stereo not drawn) as the compound, how does the TGI read?
Its TGI is 45.7 µM.

With [N-]=[N+]=CC(=O)c1ccccc1C#CCCc1ccccc1 as the compound, how does the TGI read?
The TGI was > 100 µM.

With CCN(CC(=O)O)C(=O)c1cccnc1 as the compound, how does the TGI read?
The TGI was > 100 µM.

With NCCSC(c1ccccc1)c1ccccc1 as the compound, how does the TGI read?
The TGI was 37.9 µM.

CCCCCCCCC/C=C/C=C/C(=O)NCC(=O)NC1C(O)C(O)C(Nc2ncnc3nc[nH]c23)OC1C(O)CO (stereo not drawn) was tested. Which GI50 did it give?
The GI50 was 0.00284 µM.

What about the TGI of the same compound?
The TGI was 0.112 µM.

For COc1nc(C#CC2(O)CCCCC2)nc(OC)n1, which TGI is on record?
The TGI was 24.1 µM.

How did the TGI turn out when C[C@H](CCC(=O)O)[C@H]1CC[C@@]2(C)[C@@H]3C(=O)C[C@H]4C(C)(C)[C@@H](O)CC[C@]4(C)[C@H]3C(=O)C[C@]12C was run?
Its TGI is > 100 µM.
